Results: patent publication US6117840A, “CS-1 peptidomimetics, compositions and methods of using the same” (Cytel Corporation, priority 1997, dated 2000)
Read-outs that look alike come from different tables or passages of the source. Square brackets hold non-standard residues; d marks the D form. Peptide text beside a SMILES is read from it. * marks the point of attachment. NHOctadecyl = CCCCCCCCCCCCCCCCCCN*; NHPhenethyl = c1ccc(CCN*)cc1; Morpholide = C1CN(*)CCO1; Nle = CCCC[C@H](N)C(=O)O; Piperidide = C1CCN(*)CC1; Pyrrolidide = C1CCN(*)C1; NHDecyl = CCCCCCCCCCN*; PhAc = O=C(Cc1ccccc1)*; NHBn = c1ccc(CN*)cc1; Bz = O=C(c1ccccc1)*; Ahx = NCCCCCC(=O)O; NHBu = CCCCN*; NHNH2 = NN*

Experiments:
VLA-4 = target: T1, VLA-4 (Homo sapiens, UniProt P05556+P13612); type: cell-based
T1 construct: host or cells: Jurkat (human T lymphoblastic line)
T1 sequence (P13612 34-1032): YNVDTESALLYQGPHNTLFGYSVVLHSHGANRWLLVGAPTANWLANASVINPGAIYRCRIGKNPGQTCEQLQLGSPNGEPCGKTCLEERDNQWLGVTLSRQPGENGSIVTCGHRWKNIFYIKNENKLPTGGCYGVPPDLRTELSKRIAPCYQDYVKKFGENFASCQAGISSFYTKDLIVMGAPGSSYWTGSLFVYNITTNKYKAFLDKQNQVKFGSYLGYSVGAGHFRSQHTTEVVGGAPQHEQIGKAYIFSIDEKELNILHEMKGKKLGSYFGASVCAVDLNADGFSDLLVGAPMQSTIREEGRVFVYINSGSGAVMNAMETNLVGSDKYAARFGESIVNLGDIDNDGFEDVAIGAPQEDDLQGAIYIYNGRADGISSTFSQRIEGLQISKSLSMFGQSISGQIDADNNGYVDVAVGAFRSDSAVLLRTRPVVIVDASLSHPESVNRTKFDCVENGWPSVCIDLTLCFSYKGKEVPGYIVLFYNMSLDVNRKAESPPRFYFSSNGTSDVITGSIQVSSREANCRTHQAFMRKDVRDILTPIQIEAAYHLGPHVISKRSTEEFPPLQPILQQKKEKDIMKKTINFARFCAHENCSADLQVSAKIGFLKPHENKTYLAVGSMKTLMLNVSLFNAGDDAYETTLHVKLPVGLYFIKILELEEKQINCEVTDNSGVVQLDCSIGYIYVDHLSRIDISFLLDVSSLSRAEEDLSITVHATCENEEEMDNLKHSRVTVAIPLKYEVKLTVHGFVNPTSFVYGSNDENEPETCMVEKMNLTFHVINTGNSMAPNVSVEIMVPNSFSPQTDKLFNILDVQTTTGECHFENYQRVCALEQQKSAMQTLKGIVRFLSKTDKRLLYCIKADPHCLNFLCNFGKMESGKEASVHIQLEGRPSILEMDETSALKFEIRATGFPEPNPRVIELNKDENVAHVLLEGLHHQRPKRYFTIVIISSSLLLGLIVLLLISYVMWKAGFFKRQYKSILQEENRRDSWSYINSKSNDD
T1 sequence (P05556 21-798): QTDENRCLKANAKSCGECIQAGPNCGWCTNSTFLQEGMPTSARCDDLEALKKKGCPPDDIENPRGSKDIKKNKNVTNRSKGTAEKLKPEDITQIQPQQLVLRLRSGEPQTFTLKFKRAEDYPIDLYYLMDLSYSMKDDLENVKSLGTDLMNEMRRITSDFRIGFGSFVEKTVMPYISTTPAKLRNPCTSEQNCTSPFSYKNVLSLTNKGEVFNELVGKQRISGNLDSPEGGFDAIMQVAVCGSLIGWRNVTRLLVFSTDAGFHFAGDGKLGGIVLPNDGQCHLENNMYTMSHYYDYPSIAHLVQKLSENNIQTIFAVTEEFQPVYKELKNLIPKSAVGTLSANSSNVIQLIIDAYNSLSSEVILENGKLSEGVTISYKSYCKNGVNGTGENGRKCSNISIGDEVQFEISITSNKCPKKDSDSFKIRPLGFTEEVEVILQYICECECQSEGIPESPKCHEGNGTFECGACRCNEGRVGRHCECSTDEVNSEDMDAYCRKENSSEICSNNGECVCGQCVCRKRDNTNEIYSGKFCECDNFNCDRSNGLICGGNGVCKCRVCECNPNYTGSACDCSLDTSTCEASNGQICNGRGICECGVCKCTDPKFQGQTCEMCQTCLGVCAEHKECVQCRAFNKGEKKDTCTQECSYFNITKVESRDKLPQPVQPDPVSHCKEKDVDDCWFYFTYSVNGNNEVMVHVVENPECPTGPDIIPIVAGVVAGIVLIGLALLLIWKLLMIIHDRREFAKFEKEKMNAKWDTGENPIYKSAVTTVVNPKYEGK
Protocol: Binding inhibition is measured here as a concentration of peptide that inhibits one-half the binding between a standard number of Jurkat cells and a standard amount of CS-1 peptide bound to the surface of a microtiter plate well. Those concentrations are conveniently expressed as IC50 values, smaller numbers indicating a lower concentration required to inhibit 50 percent binding and therefore greater potency. Further specifics of this assay are provided hereinafter.
Jurkat cells (ATCC TIB 152), a human T lymphoblastic line, labeled with ^51 chromium were used to assay in vitro binding inhibition provided by various peptides discussed herein.
The plates were prepared as follows: The 25-mer CS1 peptide (SEQ ID NO:1) dissolved at 0.5-1 μg/ml in a buffer of 0.1M NaHCO3 at pH 9.5 tha also contained 10 μg/ml of bovine serum albumin (BSA) or a conjugate o the CS1 peptide linked to ovalbumin (CS1-OVA) dissolved at 1-2.5 μg/ml in the same buffer was used as the substrate. Each well of the microtiter plates was coated with 50 μl of substrate or buffer alone for controls The wells were permitted to dry out completely and were then rinsed twice with PBS at pH 7.4. Nonspecific binding sites of each well were then blocked using 200 μl per well of RPMI/1 percent BSA for two hours at room temperature. Both solid phaseaffixed substrates provided similar results.
Jurkat cells (3-5×10^6 cells) were placed into a 15 ml Falcon.TM roundbottom tube with a cap. The tube was centrifuged, and the extra medium was then removed.
Two hundred microliters of a ^51 Cr labeling solution were added to th centrifuged cells and maintained in contact with the cells for 90-120 minutes in a warm room. This procedure typically provides about 50,000-100,000 cpm/well with about 80-100 percent cell viability. Longer contact times provide a greater amount of labeling but lower cell viability.
The labeled cells are washed with (i) complete medium, (ii) 1 mM EDTA/PBS and then (iii) RPMI/1 percent BSA free of serum components. The cells are centrifuged after each washing. The cells are finally resuspended in serumfree RPMI/1 percent BSA at a concentration of 1×10^6 viabl cells/ml, which provides a concentration that is diluted by onehalf in th assay.
Inhibitor peptides are prepared as stock solutions at 20 mg/ml in DMSO in 1.5 ml cryogenic screwcap vials, and were stored at -70° C. Using Flow™ roundbottom or Vbottom microtiter plates, the inhibitor peptides were prepared at twice the assay concentration in RPMI/1 percent BSA at 6 μl/well.
Four initial dilutions were typically used.
The ^51 Crlabeled cells (1×10^6 cells at 60 μl/well) were then admixed with the diluted peptide solutions. The admixtures were maintained at room temperature (about 22° C.) for 30 minutes.
One hundred microliters of each inhibitor peptide/cell admixture were transferred to the substratecoated wells. This was done in triplicate for each dilution. The resulting plates were incubated for 30 minutes at 37° C. and then washed gently three times with RPMI/1 percent BSA at 200 μl/well. Binding was observed microscopically, particularly after the second wash.
The bound cells were then lysed by the addition of a 0.5 percent solution of sodium dodecylsulfate in water at 100 μl/well. The resulting solutions were then processed for counting and calculation of IC50 values following usual procedures. Appropriate positive and negative controls were used with each plate so that the results of separate assays could be normalized and compared.

Water solubility = type: physicochemical; details: forms a turbid dispersion rather than a solution
[1] = relative to standard peptide SEQ ID NO:3 (=1), normalized IC50, about one-tenth or less of SEQ ID NO:3 assigned zero

CC(=O)N[C@@H](CC(C)C)C(=O)N[C@@H](CC(=O)O)C(=O)N[C@H](C(N)=O)C(C)C [L D V acetyl amide, reference compound] (Ac-Leu-Asp-Val-NH2)
RELATIVE POTENCY (inhibition of VLA-4 binding CS-1) (VLA-4): 0

CC(C)C[C@H](N)C(=O)N[C@@H](CC(=O)O)C(=O)N[C@H](C(N)=O)C(C)C [L D V free amine amide, reference compound] (H-Leu-Asp-Val-NH2)
RELATIVE POTENCY (inhibition of VLA-4 binding CS-1) (VLA-4; relative to standard peptide SEQ ID NO:3 (=1), normalized IC50, about one-tenth or less of SEQ ID NO:3 assigned zero, listed as Leu--Asp--Val (LDV) Nfre amine Camide): zero

CCCC[C@H](NC(=O)Cc1ccccc1)C(=O)N[C@@H](CC(=O)O)C(=O)N[C@@H](Cc1ccccc1)C(=O)N1CCC[C@@H]1C(N)=O [X K D F p phenylacetyl amide J = Nle] (PhAc-[Nle]DF[dP]-NH2)
RELATIVE POTENCY (inhibition of VLA-4 binding CS-1) (VLA-4; [1]): 49

CCCCCCCCCCNC(=O)[C@@H]1CCCN1C(=O)[C@H](Cc1ccccc1)NC(=O)[C@H](CC(=O)O)NC(=O)[C@H](CC(C)C)NC(=O)Cc1ccccc1 [X L D F P Z phenylacetyl decylamide] (PhAc-LDFP-NHDecyl)
RELATIVE POTENCY (inhibition of VLA-4 binding CS-1) (VLA-4; [1]): 2

CC(C)C[C@H](NC(=O)Cc1ccccc1)C(=O)N[C@@H](CC(=O)O)C(=O)N[C@@H](Cc1ccccc1)C(=O)N1CCOCC1 [X L D F Z phenylacetyl morpholinamide, N--phenylacetyl--Leu--Asp--Phe--morpholinamide] (PhAc-Leu-Asp-Phe-Morpholide)
RELATIVE POTENCY (inhibition of VLA-4 binding CS-1) (VLA-4; [1]): 844

CCCCNC(=O)[C@H](Cc1ccccc1)NC(=O)[C@H](CC(=O)O)NC(=O)[C@H](CC(C)C)NC(=O)Cc1ccccc1 [X L D F Z phenylacetyl n-butylamide] (PhAc-Leu-Asp-Phe-NHBu)
RELATIVE POTENCY (inhibition of VLA-4 binding CS-1) (VLA-4; [1]): 3

CC(C)C[C@H](NC(=O)Cc1ccccc1)C(=O)N[C@@H](CC(=O)O)C(=O)N[C@@H](Cc1ccccc1)C(=O)N1CCNCC1 [X L D F Z phenylacetyl piperazinamide]
RELATIVE POTENCY (inhibition of VLA-4 binding CS-1) (VLA-4; [1]): 506

CC(C)C[C@H](NC(=O)Cc1ccccc1)C(=O)N[C@@H](CC(=O)O)C(=O)N[C@@H](Cc1ccccc1)C(=O)N1CCCCC1 [X L D F Z phenylacetyl piperidinamide, N--phenylacetyl--Leu--Asp--Phe--piperidinamide] (PhAc-Leu-Asp-Phe-Piperidide)
RELATIVE POTENCY (inhibition of VLA-4 binding CS-1) (VLA-4; [1]): 231

CC(C)C[C@H](NC(=O)Cc1ccccc1)C(=O)N[C@@H](CC(=O)O)C(=O)N[C@@H](Cc1ccccc1)C(=O)N1CCCC1 [X L D F Z phenylacetyl pyrrolidinamide] (PhAc-Leu-Asp-Phe-Pyrrolidide)
RELATIVE POTENCY (inhibition of VLA-4 binding CS-1) (VLA-4; [1]): 250

CC(C)C[C@H](NC(=O)c1ccccc1)C(=O)N[C@@H](CC(=O)O)C(=O)N[C@@H](Cc1ccccc1)C(=O)N1CCC[C@@H]1C(N)=O [X L D F p benzoyl amide] (Bz-LDF[dP]-NH2)
RELATIVE POTENCY (inhibition of VLA-4 binding CS-1) (VLA-4; [1]): 75

CC(C)C[C@H](NC(=O)Cc1ccccc1)C(=O)N[C@@H](CC(=O)O)C(=O)N[C@@H](Cc1ccccc1)C(N)=O [X L D F phenylacetyl amide] (PhAc-Leu-Asp-Phe-NH2)
RELATIVE POTENCY (inhibition of VLA-4 binding CS-1) (VLA-4; [1]): < 1

CC(C)C[C@H](NC(=O)Cc1ccccc1)C(=O)N[C@@H](CC(=O)O)C(=O)NCC(=O)N1CCOCC1 [X L D G Z phenylacetyl morpholinamide] (PhAc-Leu-Asp-Gly-Morpholide)
RELATIVE POTENCY (inhibition of VLA-4 binding CS-1) (VLA-4; [1]): 9

CC(C)C[C@H](NC(=O)Cc1ccccc1)C(=O)N[C@@H](CC(=O)O)C(=O)N[C@@H](CC(C)C)C(=O)N1CCOCC1 [X L D L Z phenylacetyl morpholinamide] (PhAc-Leu-Asp-Leu-Morpholide)
RELATIVE POTENCY (inhibition of VLA-4 binding CS-1) (VLA-4; [1]): 291

CC(C)C[C@H](NC(=O)Cc1ccccc1)C(=O)N[C@@H](CC(=O)O)C(=O)N[C@@H](CO)C(=O)N1CCC[C@@H]1C(N)=O [X L D S p phenylacetyl amide] (PhAc-LDS[dP]-NH2)
RELATIVE POTENCY (inhibition of VLA-4 binding CS-1) (VLA-4; [1]): 17

CC(C)C[C@H](NC(=O)c1ccccc1)C(=O)N[C@@H](CC(=O)O)C(=O)N[C@H](C(=O)N1CCC[C@H]1C(N)=O)C(C)C [X L D V P benzoyl amide]
RELATIVE POTENCY (inhibition of VLA-4 binding CS-1) (VLA-4; [1]): 37
RELATIVE POTENCY (inhibition of VLA-4 binding CS-1) (VLA-4; relative to standard peptide SEQ ID NO:3 (=1), normalized IC50, about one-tenth or less of SEQ ID NO:3 assigned zero, listed as X L D V p benzoyl amide): 20

CC(C)C[C@H](NC(=O)Cc1ccccc1)C(=O)N[C@@H](CC(=O)O)C(=O)N[C@H](C(=O)N1CCC[C@@H]1C(N)=O)C(C)C [X L D V p phenylacetyl amide, N--phenylacetyl--Leu--Asp--Val--D--Pro--NH2]
RELATIVE POTENCY (inhibition of VLA-4 binding CS-1) (VLA-4; [1]): 106

CC(C)C[C@H](NC(=O)Cc1ccccc1)C(=O)N[C@@H](CC(=O)O)C(=O)N[C@@H](Cc1c[nH]c2ccccc12)C(=O)N1CCC[C@@H]1C(N)=O [X L D W p phenylacetyl amide] (PhAc-LDW[dP]-NH2)
RELATIVE POTENCY (inhibition of VLA-4 binding CS-1) (VLA-4; [1]): 184

CC(C)C[C@H](NC(=O)Cc1ccccc1)C(=O)N[C@@H](CC(=O)O)C(=O)N[C@@H](Cc1ccc(O)cc1)C(=O)N1CCOCC1 [X L D Y Z phenylacetyl morpholinamide, N--phenylacetyl--Leu--Asp--Tyr--morpholinamide] (PhAc-Leu-Asp-Tyr-Morpholide)
RELATIVE POTENCY (inhibition of VLA-4 binding CS-1) (VLA-4; [1]): 313

CC(C)C[C@H](NC(=O)Cc1ccccc1)C(=O)N[C@@H](CC(=O)O)C(=O)N[C@@H](Cc1ccc(O)cc1)C(=O)N1CCC[C@@H]1C(N)=O [X L D Y p phenylacetyl amide, N--phenylacetyl--Leu--Asp--Tyr--D--Pro--NH2] (PhAc-LDY[dP]-NH2)
RELATIVE POTENCY (inhibition of VLA-4 binding CS-1) (VLA-4; [1]): 640
RELATIVE POTENCY (inhibition of VLA-4 binding CS-1) (VLA-4; relative to standard peptide SEQ ID NO:3 (=1), normalized IC50, about one-tenth or less of SEQ ID NO:3 assigned zero, listed as X L D Y P phenylacetyl amide): 405

CC(C)C[C@H](NC(=O)Cc1ccccc1)C(=O)N[C@@H](CC(=O)O)C(=O)NNC(=O)OC(C)(C)C [X L D Z phenylacetyl N'-t-Boc-hydrazide]
RELATIVE POTENCY (inhibition of VLA-4 binding CS-1) (VLA-4; [1]): 2

CC(C)C[C@H](NC(=O)Cc1ccccc1)C(=O)N[C@@H](CC(=O)O)C(=O)NCc1ccccc1 [X L D Z phenylacetyl benzylamide] (PhAc-Leu-Asp-NHBn)
RELATIVE POTENCY (inhibition of VLA-4 binding CS-1) (VLA-4; [1]): 19

CC(C)C[C@H](NC(=O)Cc1ccccc1)C(=O)N[C@@H](CC(=O)O)C(=O)NC(c1ccccc1)c1ccccc1 [X L D Z phenylacetyl benzylhydrylamide]
RELATIVE POTENCY (inhibition of VLA-4 binding CS-1) (VLA-4; [1]): 3

CC(C)C[C@H](NC(=O)Cc1ccccc1)C(=O)N[C@@H](CC(=O)O)C(=O)N(Cc1ccccc1)Cc1ccccc1 [X L D Z phenylacetyl dibenzylamide]
RELATIVE POTENCY (inhibition of VLA-4 binding CS-1) (VLA-4; [1]): 0

CC(C)C[C@H](NC(=O)Cc1ccccc1)C(=O)N[C@@H](CC(=O)O)C(=O)NN [X L D Z phenylacetyl hydrazide] (PhAc-Leu-Asp-NHNH2)
RELATIVE POTENCY (inhibition of VLA-4 binding CS-1) (VLA-4; [1]): < 1

CC(C)C[C@H](NC(=O)Cc1ccccc1)C(=O)N[C@@H](CC(=O)O)C(=O)NCCc1ccccc1 [X L D Z phenylacetyl phenethylamide] (PhAc-Leu-Asp-NHPhenethyl)
RELATIVE POTENCY (inhibition of VLA-4 binding CS-1) (VLA-4; [1]): 19

CCCCCCCCCCCCCCCCCCNC(=O)CCCCCNC(=O)[C@@H]1CCCN1C(=O)[C@H](Cc1ccccc1)NC(=O)[C@H](CC(=O)O)NC(=O)[C@H](CC(C)C)NC(=O)Cc1ccccc1 [phenylacetyl--Leu--Asp--Phe--Pro--NH(CH2)5 C(O)NHC18 H37] (PhAc-LDFP[Ahx]-NHOctadecyl; C-terminus assumed)
water solubility (Water solubility): not water-soluble
